Source: patent US7777041B2, “2-acylamino-4-phenylthiazole derivatives, preparation thereof and therapeutic application thereof” (sanofi-aventis, priority 2003, dated 2010)
Read-outs that look alike come from different tables or passages of the source.

Experiments:
[1] = target: T1, human CCR2b receptor (Homo sapiens, UniProt P41597); experiment: Inhibitory activity on cells expressing the human CCR2b receptor; format: cell-based
T1 sequence (P41597 1-360 isoform P41597-2): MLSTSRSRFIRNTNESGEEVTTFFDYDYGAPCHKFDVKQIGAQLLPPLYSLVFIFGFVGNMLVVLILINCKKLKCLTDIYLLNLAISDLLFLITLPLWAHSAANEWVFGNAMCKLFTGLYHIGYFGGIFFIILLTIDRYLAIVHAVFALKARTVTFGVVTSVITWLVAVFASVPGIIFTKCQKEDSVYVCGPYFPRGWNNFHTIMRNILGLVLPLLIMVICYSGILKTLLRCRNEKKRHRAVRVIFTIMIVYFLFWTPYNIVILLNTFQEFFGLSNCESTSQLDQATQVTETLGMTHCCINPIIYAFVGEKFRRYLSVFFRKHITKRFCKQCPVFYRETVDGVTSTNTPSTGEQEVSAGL
Protocol: The inhibitory activity of the compounds according to the invention on cells expressing the human CCR2b receptor was measured.

[2] = test system: human THP-1 monocytes; experiment: Inhibition of chemotaxis on human THP-1 monocytes (adapted from Albini et al.); format: cell-based; details: hMCP-1
Protocol: The inhibition of chemotaxis was also measured on human THP-1 monocytes (sold by DSMZ-Germany) using a technique adapted from that described by A. Albini et al., Cancer Res., 1987, 47, 3239-3245. Under these conditions, hMCP-1 has an IC50 value of 6 nM.
The inhibition of chemotaxis by the compounds according to the invention is a sign of their antagonist activity on the chemokine receptors and in particular CCR2b.

[3] = test system: HIV-1 Bal virus; experiment: Inhibitory activity on PBMCs infected with HIV-1 Bal virus (reverse transcriptase content in supernatant); format: cell-based; details: 5 days exposure, read-out: IC50 of inhibition of HIV-1 Bal replication in PBMCs
Protocol: The inhibitory activity of the compounds according to the invention on PBMCs (peripheral blood mononuclear cells) infected with the HIV-1 Bal virus was also measured, according to a technique adapted from that described by V. Dolle et al., J. Med. Chem., 2000, 43, 3949, 3962. According to this technique, the PMBCs are infected with HIV-1 Bal and the test compounds are then added to the culture medium for 5 days. At the end of this exposure, the content of reverse transcriptase, which is correlated with the level of viral replication in the cells, is measured in the supernatant.
Under these conditions, AZT, a reference molecule which inhibits viral replication, has an IC50 value of less than 0.1 μM.

[4] = read-out: IC50 of inhibitory activity on cells expressing the human CCR2b receptor

Molecule `CCCc1ccc(OC)c(-c2csc(NC(=O)c3ccc(C(=O)N4CCC(N5CC[C@@H](N(C)C)C5)CC4)cc3)n2)c1` [compound 203] has an IC50 [1, 4] of 93 nM.

With “hMCP-1: "hMCP-1 (human monocyte chemotactic protein), which belongs to the group of CC chemokines and whose actions are mediated by the CCR2b receptor"” the IC50 ([1]; natural agonist, read-out: concentration of natural agonist hMCP-1 that inhibits 50% (IC50) of the activity of the CCR2b receptor) was 0.57 nM and the IC50 [2] was 6 nM.

In the case of `CCCCc1ccc(OC)c(-c2csc(NC(=O)c3ccc(C(=O)N4CCC(NC5CCOCC5)CC4)cc3)n2)c1.Cl.Cl` [68], the melting point is reported as 181 to 189 °C.

`CCOc1ccc(C2CCCCC2)cc1-c1csc(NC(=O)c2ccc(C(=O)N3CCC(=O)CC3)cc2)n1` [compound 244] gave an IC50 [1, 4] of 88 nM and a melting point of 236 °C.

Molecule `CCCCc1ccc(OC)c(-c2csc(NC(=O)c3ccc(CCCNC4CCOCC4)cc3)n2)c1` [compound 182, N-[4-(5-Butyl-2-methoxyphenyl)-1,3-thiazol-2-yl]-4-[3-(tetrahydro-2H-pyran-4-ylamino)propyl]benzamide] has a melting point of 150 °C.

Work on `Cc1cn([C@H]2C[C@H](N=[N+]=[N-])[C@@H](CO)O2)c(=O)[nH]c1=O` [AZT] yielded an IC50 [3] of under 100 nM.

For `CCOc1ccc(OCC)c(-c2csc(NC(=O)c3ccc(OCCN(CC)CC)cc3)n2)c1` [compound 12], the IC50 [1, 4] was 81 nM.
